Results from patent publication US20050214759A1, “Enzymatic redox labelling of nucleic acids” (priority 2001, published 2005).

Tests used:
T7 RNA polymerase = molecular target: T1, T7 RNA polymerase (Escherichia phage T7, UniProt P00573); assay: Incorporation of Fc-UTP into RNA in the course of transcription; format: biochemical
T1 construct: purchased USB
Description: Circular plasmid pT7Mta which contains the promoter for T7 RNA polymerase followed by the gene for aptamer C40 and a T7 terminator sequence was used for transcription. T7 RNA polymerase tends to produce short abortive RNA transcripts when modified nucleotides are incorporated into the first 12 nucleotides of RNA.
A typical transcription mixture (10 μL) contained 40 mM tris-HCl (pH 8.0), 15 mM MgCl2, 5 mM DTT, 0.05 mg/mL BSA, 1 UOL Rnasin, 0.4 mM NTPs, 10 ug/mL pT7Mta template, and 10U/uL T7 RNA polymerase. In some reaction mixtures, UTP was partially or fully substituted with […] in such a way that the total concentration of UTP and Fc-UTP was still 0.4 mM. Reaction mixtures were incubated at 37° C. for 2 h. Reactions were stopped by addition of 10 μL of gel loading buffer (98% formamide, 10 mM EDTA (pH 8.0), 0.025% bromophenol blue and 0.025% xylene cyanole PF) and heated at 95° C. for 2 min. RNA fragments were separated by 10% PAGE/8 M urea. The gel was stained by SYBR Green II (Sigma) according to manufacturers procedure, and visualised on a Fluorimager (Bio-Rad).

[1] = Cyclic voltammetry of Fc-NTP; format: physicochemical; settings: vs. Ag/AgCl; 20 mM tris-acetate pH 7.4, 100 mM KCl, 1 mM MgCl2; scan rate 20 mV/s
Description: Fc-dUTP and Fc-UTP have characteristic absorption spectra which correspond to a superposition of spectra for the modified nucleotide and ferrocene carboxamide constituents. They have a strong absorption in the UV region and a seal, broad peak characteristics of ferrocene near 440 nm. Cyclic voltammetry of Fc-dUTP yields a symmetric peak with E1/2=398 mV vs. Ag/AgCl, consistent with reversible redox reaction of the Fc moiety. The redox potential of Fc-dUTP is 90 mV greater than the potential of ferrocenecarboxylate (310 mV vs. Ag/AgCl) measured in the same buffer (data now shown), reflecting the change of pentadienyl ring substituent (—COO to —CONHR) to one which is more electron-withdrawing. The observed potential is close to that reported for a ferrocene carboxamide moiety attached to the 5′-end of DNA oligonucleotides in aqueous buffer (406-425 mV vs. Ag/AgCl).
Cyclic voltammograms were recorded with an electrochemical analyser (BAS). The three-electrode system consisted of a glassy carbon working electrode, a Ag/AgCl (saturated KCl) reference electrode (Eref=206 mV) and a platinum counter electrode. Experiments were performed in a 5 ml electrochemical cell containing 0.8 mM Fc-NTP in 20 mM tris-acetate (pH 7.4), 100 mM KCl, and 1 mM MgCl2 at a scan rate of 20 mV/s. The scan range was from −0.1 to +0.8 V (vs. Ag/AgCl). (See FIG. 2).

T1 sequence (P00573 whole entry): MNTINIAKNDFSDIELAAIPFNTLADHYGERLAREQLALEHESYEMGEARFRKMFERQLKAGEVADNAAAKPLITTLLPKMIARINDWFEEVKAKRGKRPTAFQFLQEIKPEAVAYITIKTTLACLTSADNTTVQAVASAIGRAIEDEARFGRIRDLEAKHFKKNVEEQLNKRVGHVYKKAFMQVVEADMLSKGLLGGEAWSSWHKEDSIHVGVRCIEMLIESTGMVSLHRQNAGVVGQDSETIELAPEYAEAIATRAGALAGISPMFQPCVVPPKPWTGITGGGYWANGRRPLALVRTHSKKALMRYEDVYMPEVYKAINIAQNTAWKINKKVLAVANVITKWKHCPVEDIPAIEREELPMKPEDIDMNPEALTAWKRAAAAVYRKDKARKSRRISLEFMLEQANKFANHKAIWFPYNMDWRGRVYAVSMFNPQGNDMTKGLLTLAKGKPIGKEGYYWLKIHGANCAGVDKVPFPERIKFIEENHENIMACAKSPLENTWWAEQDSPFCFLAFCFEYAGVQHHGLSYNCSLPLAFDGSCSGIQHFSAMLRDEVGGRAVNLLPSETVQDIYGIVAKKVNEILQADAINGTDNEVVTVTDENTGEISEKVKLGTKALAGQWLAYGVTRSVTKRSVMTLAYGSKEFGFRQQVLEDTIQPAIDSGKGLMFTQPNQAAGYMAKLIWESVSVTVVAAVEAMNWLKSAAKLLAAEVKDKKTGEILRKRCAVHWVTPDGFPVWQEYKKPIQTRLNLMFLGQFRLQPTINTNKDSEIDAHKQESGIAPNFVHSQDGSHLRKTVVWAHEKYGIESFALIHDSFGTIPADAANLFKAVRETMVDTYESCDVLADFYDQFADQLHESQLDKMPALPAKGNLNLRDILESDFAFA

| Compound | amount of RNA product formed (T7 RNA polymerase; substitution of UTP by Fc-UTP, total 0.4 mM) | amount of RNA product formed (T7 RNA polymerase; total absence of UTP (full substitution by Fc-UTP)) | E1/2 (redox potential) [1] [mV] |
| --- | --- | --- | --- |
| O=C(NCC=Cc1cn([C@@H]2O[C@H](COP(=O)(O)OP(=O)(O)OP(=O)(O)O)[C@@H](O)[C@H]2O)c(=O)[nH]c1=O)[c-]1cccc1.[Fe+2].c1cc[cH-]c1 [Fc-UTP, 5-(3ferrocenecarboxamidopropenyl-1)-uridine-5′-triphosphate] | significant decrease in the amount of RNA product formed | synthesized a significant amount of RNA product |  |
| ferrocenecarboxylate [reference compound] |  |  | 310 |
